Measurements as given in BigSolDB 2.1.

CC(C)(C)c1ccc(-c2nnc(-c3ccc(-c4ccccc4)cc3)o2)cc1
solubility (mole fraction)
Conditions	273.15 K	283.15 K	293.15 K	303.15 K	313.15 K	323.15 K	333.15 K
in DMSO	–	–	0.00363	0.00603	0.00886	0.0133	0.0187
in NMP	–	0.0542	0.0662	0.0767	0.0954	0.115	–
in THF	–	0.0524	0.0589	0.065	0.0725	0.0817	–
in acetonitrile	–	0.00143	0.00234	0.00313	0.00464	0.00615	–
in chlorobenzene	–	0.0587	0.0709	0.0834	0.0952	0.112	–
in dichloromethane	0.0818	0.0911	0.104	0.112	–	–	–
in ethanol	–	0.00062	0.000963	0.00148	0.00222	0.00315	–
in ethyl acetate	–	0.0114	0.0153	0.0223	0.03	0.0392	–
in isopropanol	–	0.000711	0.0012	0.00174	0.00274	0.00324	–
in methanol	–	0.000412	0.000703	0.00105	0.00185	0.00281	–
in n-hexane	–	0.000411	0.000596	0.000996	0.00164	0.00235	–
in toluene	–	0.0303	0.04	0.0585	0.0834	0.109	–
